From patent US20200237905A1, “COMBINATION THERAPY WITH A BET INHIBITOR, A BCL-2 INHIBITOR AND AN ANTI-CD20 ANTIBODY” (Hoffmann-La Roche Inc., priority 2017, published 2020)

Tests used:
[1] = system: WSU-DLCL2 xenografts (CD20+); experiment: In vivo antitumor efficacy against WSU-DLCL2 xenografts, obinutuzumab study (FIG. 1-2); set-up: species or system human; conditions: for median tumor volume: venetoclax 100 mg/kg, RG6146 30 mg/kg; for TGI % (tumor growth inhibition compared to control) / npTCR (non-parametric Treatment to Control Ratio) / Tumor free mice: Day 36; for TGI % (tumor growth inhibition compared to control): obinutuzumab 10 mg/kg once weekly; for Tumor free mice: tumor free mice / mice in group
Method: (§1) Antibody buffer included histidine. Antibody solution was diluted appropriately in buffer from stock prior injections. BET inhibitor RG6146 was provided as powder from Roche, Basel, Switzerland and resuspended prior to use. Bcl-2 inhibitor GDC-0199 was provided by Genentech, South San Francisco, USA and formulated prior to use.
(§2) The original WSU-DLCL2 human B cell NHL cell line (DLBCL) was purchased from DSMZ (Braunschweig, Germany). Expansion of tumor cells for the transplantation was done by the TAP CompacT CellBase Cell Culture Roboter according to the protocol. Tumor cell line was routinely cultured in RPMI 1640 medium, FCS 10% and L-Glutamin 2 mM at 37° C. in a water-saturated atmosphere at 5% CO2. Culture passage was performed with trypsin/EDTA 1× splitting twice/week and passage 3 used for transplantation.
(§3) Female SCID beige mice, age 6-7 weeks at arrival, maintained under specific-pathogen-free condition with daily cycles of 12 h light/12 h darkness according to committed guidelines. Experimental study protocol was reviewed and approved by local government. After arrival animals were maintained in animal facility for one week to get accustomed to new environment and for observation. Continuous health monitoring was carried out on regular basis. Diet food and autoclaved water were provided ad libitum.
(§4) Animals were controlled daily for clinical symptoms and detection of adverse effects. For monitoring throughout the experiment body weight of animals was documented.
CD20 antibody obinutuzumab was administered as single agent and in combination at 10 mg/kg ip once weekly on days 10, 17, 24 and 31. The corresponding vehicle was administered on the same days. BET inhibitor RG6146 ip treatment at 30 mg/kg was done as single agent and in combination on days 10-18, 21-25 and 28-32. Finally, Bcl-2 inhibitor venetoclax (GDC-0199) was given orally at 100 mg/kg on days 10-18, 21-25 and 28-32 as single agent and in combination.
For the study shown in FIG. 1, WSU-DLCL2 human Diffuse Large B-cell Lymphoma (DLBCL) cells (CD20+) were s.c. inoculated with Matrigel onto female SCID beige mice. Tumor bearing mice were randomized 10 days later to the indicated study groups and compound treatment initiated. Tumor bearing animals were treated with vehicle control, with the BET inhibitor RG6146 at 30 mg/kg, with the anti-CD20 antibody obinutuzumab at 10 mg/kg or with Bcl-2 inhibitor venetoclax (GDC-0199) at 100 mg/kg as single agent. Additionally, three groups were treated with a dual combination of either RG6146 and venetoclax, or RG6146 and obinutuzumab or obinutuzumab and venetoclax. Finally, one study group received the triple combination of BET inhibitor RG6146, CD20 antibody obinutuzumab and Bcl-2 inhibitor venetoclax (GDC-0199). […] In constrast to this, the respective double combination regimens reached a tumor regrowth after about 20 days.

[2] = system: WSU-DLCL2 xenografts (CD20+); experiment: In vivo antitumor efficacy against WSU-DLCL2 xenografts, rituximab study (FIG. 3); set-up: species or system human; conditions: for median tumor volume / npTCR (non-parametric Treatment to Control Ratio) / Tumor free mice: rituximab 10 mg/kg; for median tumor volume: venetoclax 100 mg/kg, RG6146 30 mg/kg; for TGI % (tumor growth inhibition): rituximab 10 mg/kg once weekly, venetoclax 100 mg/kg po and RG6146 30 mg/kg ip days 11-17; for npTCR (non-parametric Treatment to Control Ratio) / Tumor free mice: venetoclax 100 mg/kg po, RG6146 30 mg/kg ip; for Tumor free mice: tumor free mice / mice in group
Method: as §1, §2, §3, §4
The corresponding vehicle was administered on the same days. BET inhibitor RG6146 ip treatment at 30 mg/kg was done as single agent and in combination on days 11-17. Finally, bcl-2 inhibitor venetoclax (GDC-0199) was given orally at 100 mg/kg on days 11-17 as single agent and in combination.

[3] = Day 10 (randomisation, start of treatment), s.c. xenograft in female SCID beige mice, obinutuzumab 10 mg/kg
[4] = Day 14, female SCID beige mice, obinutuzumab 10 mg/kg
[5] = Day 17, female SCID beige mice, obinutuzumab 10 mg/kg
[6] = Day 21, female SCID beige mice, obinutuzumab 10 mg/kg
[7] = Day 24, female SCID beige mice, obinutuzumab 10 mg/kg
[8] = Day 28, female SCID beige mice, obinutuzumab 10 mg/kg
[9] = Day 31, female SCID beige mice, obinutuzumab 10 mg/kg
[10] = Day 36 (treatment ended day 32), female SCID beige mice, obinutuzumab 10 mg/kg
[11] = female SCID beige mice, venetoclax 100 mg/kg po, RG6146 30 mg/kg ip
[12] = obinutuzumab 10 mg/kg, venetoclax 100 mg/kg po, RG6146 30 mg/kg ip
[13] = Day 11, s.c. xenograft in female SCID beige mice

In the case of “obinutuzumab: Type II anti-CD20 antibody, synonymous for GA101, formerly known as afutuzumab”, the median tumor volume [1, 3] is reported as 136 mm^3, the median tumor volume [1, 4] is reported as 131 mm^3 and the median tumor volume [1, 5] is reported as 112 mm^3. It also gave a median tumor volume [1, 6] of 110 mm^3, a median tumor volume [1, 7] of 111 mm^3 and a median tumor volume [1, 8] of 124 mm^3. The median tumor volume [1, 9] was 132 mm^3, the median tumor volume [1, 10] was 382 mm^3 and the “TGI % (tumor growth inhibition compared to control)” value [1, 11] was 84%. For the same compound, the “npTCR (non-parametric Treatment to Control Ratio)” value [1, 12] was 0.20, the Tumor free mice [1, 12] was 0/10 and the median tumor volume ([1]; Day 39 (follow-up after treatment), female SCID beige mice, obinutuzumab 10 mg/kg) was 405 mm^3. It also gave a median tumor volume ([1]; Day 43 (follow-up after treatment), female SCID beige mice, obinutuzumab 10 mg/kg) of 700 mm^3, a median tumor volume ([1]; Day 46 (follow-up after treatment), female SCID beige mice, obinutuzumab 10 mg/kg) of 713 mm^3 and a median tumor volume ([1]; Day 50 (follow-up after treatment), female SCID beige mice, obinutuzumab 10 mg/kg) of 758 mm^3. For the same compound, the “Tumor growth delay (Days): time until relative tumor volume reached again 100% (100% at beginning, Day 10)” value ([1]; female SCID beige mice, obinutuzumab 10 mg/kg, venetoclax 100 mg/kg po, RG6146 30 mg/kg ip) was 21 days.
Compound Cc1sc2c(c1C)C(c1ccc(Cl)cc1)=N[C@@H](CC(=O)NCCCN1CCN(C)CC1)c1nnc(C)n1-2 [RG6146, 2-[(S)-4-(4-Chloro-phenyl)-2,3,9-trimethyl-6H-1-thia-5,7,8,9a-tetraaza-cyclopenta[e]azulen-6-yl]-N-[3-(4-methyl-piperazin-1-yl)-propyl]-acetamide] has a median tumor volume [2, 13] of 134 mm^3, a median tumor volume ([2]; Day 14, female SCID beige mice) of 161 mm^3 and a median tumor volume ([2]; Day 18, female SCID beige mice) of 270 mm^3. For the same compound, the median tumor volume ([2]; Day 21, female SCID beige mice) was 245 mm^3, the median tumor volume ([2]; Day 25, female SCID beige mice) was 453 mm^3 and the “TGI % (tumor growth inhibition)” value ([2]; Day 28, female SCID beige mice) was 30%. For the same compound, the median tumor volume ([2]; Day 28, female SCID beige mice) was 550 mm^3, the “npTCR (non-parametric Treatment to Control Ratio)” value ([2]; Day 28) was 0.71 and the Tumor free mice ([2]; Day 28) was 0/9. It also gave a median tumor volume [1, 3] of 137 mm^3, a median tumor volume [1, 4] of 200 mm^3 and a median tumor volume [1, 5] of 185 mm^3. The median tumor volume [1, 6] was 198 mm^3, the median tumor volume [1, 7] was 387 mm^3 and the median tumor volume [1, 8] was 441 mm^3. For the same compound, the median tumor volume [1, 9] was 489 mm^3, the median tumor volume [1, 10] was 962 mm^3 and the “TGI % (tumor growth inhibition compared to control)” value [1, 11] was 46%. For the same compound, the “npTCR (non-parametric Treatment to Control Ratio)” value [1, 12] was 0.50 and the Tumor free mice [1, 12] was 0/9.
In the case of CC1(C)CCC(CN2CCN(c3ccc(C(=O)NS(=O)(=O)c4ccc(NCC5CCOCC5)c([N+](=O)[O-])c4)c(Oc4cnc5[nH]ccc5c4)c3)CC2)=C(c2ccc(Cl)cc2)C1 [venetoclax, 4-(4-{[2-(4-chlorophenyl)-4,4-dimethylcyclohex-1-en-1-yl]methyl}piperazin-1-yl)-N-({3-nitro-4-[(tetrahydro-2H-pyran-4-ylmethyl)amino]phenyl}sulfonyl)-2-(1H-pyrrolo[2,3-b]pyridin-5-yloxy)benzamide], the median tumor volume [2, 13] is reported as 136 mm^3, the median tumor volume ([2]; Day 14, female SCID beige mice) is reported as 162 mm^3 and the median tumor volume ([2]; Day 18, female SCID beige mice) is reported as 267 mm^3. For the same compound, the median tumor volume ([2]; Day 21, female SCID beige mice) was 388 mm^3, the median tumor volume ([2]; Day 25, female SCID beige mice) was 497 mm^3 and the “TGI % (tumor growth inhibition)” value ([2]; Day 28, female SCID beige mice) was 34%. For the same compound, the median tumor volume ([2]; Day 28, female SCID beige mice) was 554 mm^3, the “npTCR (non-parametric Treatment to Control Ratio)” value ([2]; Day 28) was 0.66 and the Tumor free mice ([2]; Day 28) was 0/10. The median tumor volume [1, 3] was 137 mm^3, the median tumor volume [1, 4] was 202 mm^3 and the median tumor volume [1, 5] was 226 mm^3. It also gave a median tumor volume [1, 6] of 212 mm^3, a median tumor volume [1, 7] of 337 mm^3 and a median tumor volume [1, 8] of 494 mm^3. The median tumor volume [1, 9] was 565 mm^3, the median tumor volume [1, 10] was 906 mm^3 and the “TGI % (tumor growth inhibition compared to control)” value [1, 11] was 49%. The “npTCR (non-parametric Treatment to Control Ratio)” value [1, 12] was 0.53 and the Tumor free mice [1, 12] was 0/10.
